Experimental data reported in article PMC3124361 (Journal of medicinal chemistry, 2011).
pEC50, pIC50: −log10 of the molar value. ≈ marks a conversion by molar mass, not a printed value. Where “and” joins values, the source holds several entries; their conditions need not be identical. Equal values may be shown once. Read-outs that look alike come from different tables or passages of the source.

How the values were obtained:
PfDHODH = molecular target: T1, PfDHODH (Plasmodium falciparum, UniProt Q08210); experiment: PfDHODH DCIP dye-based enzyme assay; type: biochemical; conditions: for pIC50: IC50 PfDHODH
T1 sequence (Q08210 158-569 limits assumed): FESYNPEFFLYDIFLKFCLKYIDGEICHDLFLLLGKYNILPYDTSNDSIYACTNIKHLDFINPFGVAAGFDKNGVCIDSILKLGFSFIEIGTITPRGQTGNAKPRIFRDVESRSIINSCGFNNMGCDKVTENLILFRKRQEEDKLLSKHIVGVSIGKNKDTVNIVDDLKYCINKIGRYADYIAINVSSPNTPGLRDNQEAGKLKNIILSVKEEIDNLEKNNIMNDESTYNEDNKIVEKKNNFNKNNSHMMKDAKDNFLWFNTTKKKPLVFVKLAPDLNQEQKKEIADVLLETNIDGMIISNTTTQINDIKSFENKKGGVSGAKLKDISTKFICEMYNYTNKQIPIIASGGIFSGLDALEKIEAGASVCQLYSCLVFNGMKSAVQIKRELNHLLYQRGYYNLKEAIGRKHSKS

[1] = Non-equilibrium solubility by nephelometry, pH 6.5; type: physicochemical; conditions: for solubility: phosphate buffer
human albumin = human albumin (Homo sapiens, UniProt P02768); experiment: Protein binding estimated on human albumin column; type: in vitro ADME; conditions: human albumin chromatographic method
human albumin, sequence (P02768 25-609): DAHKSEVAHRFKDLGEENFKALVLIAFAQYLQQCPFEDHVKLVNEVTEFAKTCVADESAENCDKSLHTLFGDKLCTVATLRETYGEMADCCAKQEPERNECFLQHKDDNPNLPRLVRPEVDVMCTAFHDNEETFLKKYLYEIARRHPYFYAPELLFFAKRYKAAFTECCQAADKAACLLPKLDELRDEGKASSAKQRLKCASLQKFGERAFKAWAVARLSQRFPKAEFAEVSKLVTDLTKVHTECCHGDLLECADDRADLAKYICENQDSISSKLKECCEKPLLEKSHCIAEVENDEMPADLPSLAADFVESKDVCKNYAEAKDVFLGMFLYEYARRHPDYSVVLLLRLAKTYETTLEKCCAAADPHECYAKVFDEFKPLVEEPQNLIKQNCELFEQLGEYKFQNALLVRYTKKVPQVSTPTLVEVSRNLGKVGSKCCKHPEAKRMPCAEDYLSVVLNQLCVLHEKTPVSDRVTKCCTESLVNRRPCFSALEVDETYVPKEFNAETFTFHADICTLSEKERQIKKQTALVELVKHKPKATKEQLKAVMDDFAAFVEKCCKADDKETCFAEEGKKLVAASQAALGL

[2] = In vitro metabolism in human liver microsomes; type: in vitro ADME; conditions: for microsomal CLint at 1 μM: microsomes, pH 7.4; for Eh Human: predicted hepatic extraction ratio
[3] = In vitro metabolism in mouse liver microsomes; type: in vitro ADME; conditions: for microsomal CLint at 1 μM: microsomes, pH 7.4; for Eh Mouse: predicted hepatic extraction ratio
hDHODH = hDHODH (Homo sapiens, UniProt Q02127); conditions: read-out: IC50 hDHODH; reported previously; ref [13], [15]; cited from earlier work
hDHODH, sequence (Q02127 31-395 limits assumed): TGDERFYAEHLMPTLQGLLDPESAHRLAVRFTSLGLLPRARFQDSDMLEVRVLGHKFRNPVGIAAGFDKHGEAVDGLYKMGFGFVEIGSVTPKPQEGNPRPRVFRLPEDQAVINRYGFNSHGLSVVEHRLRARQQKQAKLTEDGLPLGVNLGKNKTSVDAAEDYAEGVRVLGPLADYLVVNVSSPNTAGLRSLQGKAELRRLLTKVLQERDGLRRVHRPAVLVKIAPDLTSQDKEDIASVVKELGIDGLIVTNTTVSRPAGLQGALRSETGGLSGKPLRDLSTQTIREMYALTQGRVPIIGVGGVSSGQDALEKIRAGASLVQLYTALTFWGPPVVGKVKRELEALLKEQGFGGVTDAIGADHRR

P. falciparum 3D7 cells [4] = conditions: cited from earlier work
[5] = ref [13], [15], cited from earlier work; for Eh Human: predicted hepatic extraction ratio
[6] = ref [13], [15], cited from earlier work
[7] = tested on: P. berghei NK65 ANKA strain; conditions: cited from earlier work
[8] = Mouse systemic exposure after single oral dose; type: in vivo; conditions: single oral dose 20 mg/kg, plasma
P. falciparum 3D7 cells [9] = experiment: P. falciparum whole cell assay; type: cell-based, Plasmodium falciparum
[10] = Rat pharmacokinetics after IV and oral administration; type: in vivo; conditions: for adverse reactions following IV or oral administration: either dose route; for clearance: male, Sprague Dawley, in vivo, iv
rat plasma proteins = experiment: Protein binding in rat plasma by ultracentrifugation; type: in vitro ADME; conditions: 37°C
[11] = tested on: P. berghei NK65 ANKA strain; experiment: Peter's test, P. berghei efficacy in mice; type: in vivo, Plasmodium berghei; conditions: for ED50: Plasmodium berghei, in Mus musculus, po, read-out: ED50 95% confidence interval; for adverse reactions attributed to drug: any of the dose levels, efficacy study in mice

| SMILES | pIC50 (PfDHODH; stated in text) | aqueous solubility at pH 6.5 (in words) [1] | solubility [1] [µM] | Human Plasma Binding (human albumin) [%] | microsomal CLint at 1 μM [2] [µL/min/mg] | microsomal CLint at 1 μM [3] [µL/min/mg] | Eh Human [2] | Eh Mouse [3] | Time above 1 μM [8] [h] | also measured |
| --- | --- | --- | --- | --- | --- | --- | --- | --- | --- | --- |
| Cc1cc(Nc2ccc(C(C)(C)C)cc2)n2ncnc2n1 [Compound 15, N-(4-tert-Butylphenyl)-5-methyl-[1,2,4]triazolo[1,5-a]pyrimidin-7-amine] | > 7.00 | poorly soluble | 11 to 22 (≈ 3.09 to 6.19 µg/mL) | 93.2 | > 30 | > 30 | – | – | – | – |
| Cc1cc(Nc2ccc3ccccc3c2)n2ncnc2n1 [Compound 1, (5-methyl-[1,2,4]triazolo[1,5-a]pyrimidin-7-yl)-naphthalen-2-yl-amine] | – | – | 45 to 90 (≈ 12.4 to 24.8 µg/mL) | 93.8 | – | – | – | – | – | pIC50 (hDHODH): < 3.70; pEC50 (P. falciparum 3D7 cells [4]; read-out: EC50 Pf 3D7 cells, serum media, reported previously, ref [13], [15]): 7.12; pIC50 (P. falciparum 3D7 cells [4]; read-out: IC50 against the parasite, initial lead, ref [15]): 7.00 to 7.30; Eh Human [5]: 0.84; CLint Mouse ([6]; mouse liver microsomes, reported previously): 229 μL/min/mg protein; Eh Mouse ([6]; predicted hepatic extraction ratio, mouse): 0.91 |
| Cc1cc(Nc2ccc3c(c2)CCCC3)n2ncnc2n1 [Compound 33, 5-methyl-N-(5,6,7,8-tetrahydronaphthalen-2yl)-[1,2,4]triazolo[1,5-a]pyrimidin-7-amine] | > 7.00 and ~7.52 | – | 89 to 179 (≈ 24.9 to 50 µg/mL) | 95.5 | > 30 | > 30 | – | – | – | pIC50 (PfDHODH): 7.46 |
| Cc1cc(Nc2ccc(C(F)(F)F)cc2)n2ncnc2n1 [Compound 2, (5-methyl-[1,2,4]triazolo[1,5-a]pyrimidin-7-yl)-(4-trifluoromethyl-phenyl)-amine] | – | – | 21 to 43 (≈ 6.16 to 12.6 µg/mL) | 86.9 | – | – | – | – | – | CLint Human ([5]; human liver microsomes, reported previously): 8/ND ^a μL/min/mg protein; Eh Human [5]: 0.29/ND ^a; suppression of parasitemia ([7]; 50 mg/kg BID, 24 h after the last dose, ref [15]): 90% |
| Cc1cc(Nc2ccc(C(C)C)cc2)n2ncnc2n1 [Compound 14, N-(4-Isopropylphenyl)-5-methyl-[1,2,4]triazolo[1,5-a]pyrimidin-7-amine] | – | – | 47 to 94 (≈ 12.6 to 25.1 µg/mL) | 91.3 | – | – | 0.64 | 0.91 | <1 | – |
| Cc1cc(Nc2ccc(S(F)(F)(F)(F)F)cc2)n2ncnc2n1 [Compound 21, N-(4-Pentafluorosulfenylphenyl)-5-methyl-[1,2,4]triazolo[1,5-a]pyrimidin-7-amine] | – | – | 71 to 142 (≈ 24.9 to 49.9 µg/mL) | 95.4 | < 6 | – | <0.2/<0.2 | <0.2/<0.2 | – | pIC50 (PfDHODH): > 6.52; fold better activity (lower IC50) against PfDHODH than 2 (PfDHODH; comparator 2): 2-3 fold; fold EC50 above the levels for the comparator anti-malarial drugs (P. falciparum 3D7 cells [9]): 10-200 fold; Time above 1 μM ([8]; 20 mg/kg): 18 h; adverse reactions following IV or oral administration [10]: No adverse reactions; clearance ([10]; 5.1 mg/kg): 1.2 mL/min/kg; binding to rat plasma proteins (rat plasma proteins): 95.2%; parasite clearance (in words) ([11]; 50 mg/kg BID): none of the mice were parasite free on any day; parasite clearance (in words) ([11]; 100 mg/kg QD): none of the mice were parasite free on any day; ED50 [11]: 10 to 29 mg/kg; adverse reactions attributed to drug [11]: No adverse reactions |
| Cc1cc(Nc2ccc(C(C)(C)C)c(F)c2)n2ncnc2n1 [Compound 29, N-(4-tert-Butyl-3-fluorophenyl)-5-methyl-[1,2,4]triazolo[1,5-a]pyrimidin-7-amine] | > 7.00 and ~7.52 | poorly soluble | – | 96.4 | > 30 | > 30 | – | – | <1 | fold decrease in PfDHODH IC50 vs 15 (PfDHODH; comparator 15): 2 fold |
| CCN(CC)CCCC(C)Nc1ccnc2cc(Cl)ccc12 (stereo not drawn) [chloroquine, reference compound] | – | – | – | – | – | – | – | – | – | ED50 in this model ([7]; previous reports, ref [20]): ~2 mg/kg |
| C=Cc1ccc(Nc2cc(C)nc3ncnn23)cc1 [Compound 17, N-(4-Vinylphenyl)-5-methyl-[1,2,4]triazolo[1,5-a]pyrimidin-7-amine] | – | – | 25 to 50 (≈ 6.28 to 12.6 µg/mL) | 84.4 | – | – | 0.64 | 0.88 | – | – |
| Cc1cc(Nc2ccc3sccc3c2)n2ncnc2n1 [Compound 36, N-(Benzo[b]thiophen-5yl)-5-methyl-[1,2,4]triazolo[1,5-a]pyrimidin-7-amine] | > 7.00 | – | 22 to 44 (≈ 6.19 to 12.4 µg/mL) | 89.8 | > 30 | > 30 | – | – | <1 | – |
| Cc1cc(Nc2ccc(SC(F)(F)F)cc2)n2ncnc2n1 [Compound 20, 5-Methyl-N-(4-(trifuoromethylthio)phenyl)-[1,2,4]triazolo[1,5-a]pyrimidin-7-amine] | – | poorly soluble | 5 to 10 (≈ 1.63 to 3.25 µg/mL) | 96.1 | < 10 | > 25 | < 0.2 | 0.84 | – | – |
| Cc1cc(NC2Cc3ccccc3C2)n2ncnc2n1 [Compound 45, N-(2,3-Dihydro-1H-inden-2-yl)-5-methyl-[1,2,4]triazolo[1,5-a]pyrimidin-7-amine] | – | highly soluble | 188 to 376 (≈ 49.9 to 99.8 µg/mL) | 76.1 | < 10 | > 25 | < 0.2 | 0.59 | <1 | – |
| Cc1cc(Nc2cc(F)c(C(F)(F)F)c(F)c2)n2ncnc2n1 [Compound 32, N-(3,5-difluoro-4-(trifluoromethyl)phenyl)-5-methyl-[1,2,4]triazolo[1,5-a]pyrimidin-7-amine] | – | poorly soluble | 9 to 18 (≈ 2.96 to 5.93 µg/mL) | 96.6 | < 6 | – | <0.2/<0.2 | <0.2/<0.2 | – | pIC50 (PfDHODH): > 6.52; Time above 1 μM ([8]; 20 mg/kg): 19 h; adverse reactions following IV or oral administration [10]: No adverse reactions; clearance ([10]; 0.9 mg/kg): 2.3 mL/min/kg; clearance ([10]; 2.9 mg/kg): 1.5 mL/min/kg; binding to rat plasma proteins (rat plasma proteins): 97.3%; parasite clearance (in words) ([11]; 50 mg/kg BID): parasite free on day 5; mice remaining parasite free through day 7 ([11]; 100 mg/kg BID, parasites reemerged on day 9): 4/5; parasite clearance (in words) ([11]; 100 mg/kg QD): parasite free on day 5; ED50 [11]: 7.6 to 13 mg/kg; adverse reactions attributed to drug [11]: No adverse reactions |
